Tests used:
[1] = tested on: ST486; assay: OncoPanel cell proliferation assay, ST486; format: cell-based, human; details: for Cell Count Activity Area: ST486, scale 0-10
Description: (§1) Cells were grown in RPMI 1640, 10% FBS, 2 mM L-alanyl-L-glutamine, 1 mM Na pyruvate, or a special medium. Cells were seeded into 384-well plates and incubated in a humidified atmosphere of 5% CO2 at 37° C. Compounds were added the day following cell seeding. At the same time, a time zero untreated cell plate was generated. After a 3-day incubation period, cells were fixed and stained to allow fluorescence imaging of nuclei. Compounds (1 mM stock solutions) were serially diluted in half-log steps from the highest test concentration ([…]), and assayed over 10 concentrations with a maximum assay concentration of 0.1% DMSO. Automated fluorescence microscopy was carried out using a Molecular Devices ImageXpress Micro XL high-content imager, and images were collected with a 4× objective. 16-bit TIFF images were acquired and analyzed with MetaXpress 5.1.0.41 software.
(§2) Cell proliferation was measured by the fluorescence intensity of an incorporated nuclear dye. The output is referred to as the relative cell count, where the measured nuclear intensity is transformed to percent of control (POC) using the following formula: […]
(§3) Cellular response parameters were calculated using nonlinear regression to a sigmoidal single-site dose response model:
(§4) Where y is a response measured at concentration x, A and B are the lower and upper limits of the response, C is the concentration at the response midpoint (EC50), and D is the Hill Slope (Ref. 1).
(§5) EC50 is the test compound concentration at the curve inflection point or half the effective response (parameter C of the fitted curve solution). GI50 is the concentration needed to reduce the observed growth by half (midway between the curve maximum and the time zero value). “Cell Count Activity Area” is an estimate of the integrated area above the curve (Barretina, et al. The Cancer Cell Line Encyclopedia enables predictive modelling of anticancer drug sensitivity. Nature 483: 603-607). […] In rare instances, values <0 or >10 may be observed. […] Curve-fitting, calculations, and report generation was performed using a custom data reduction engine and MathIQ based software (AIM).

[2] = tested on: CHP-212; assay: OncoPanel cell proliferation assay, CHP-212; details: for Cell Count Activity Area: CHP-212, scale 0-10
Description: (§6) Cells were seeded into 384-well plates and incubated in a humidified atmosphere of 5% CO2 at 37° C. Compounds were added the day following cell seeding. At the same time, a time zero untreated cell plate was generated. After a 3-day incubation period, cells were fixed and stained to allow fluorescence imaging of nuclei. Compounds (1 mM stock solutions) were serially diluted in half-log steps from the highest test concentration (1 micromol), and assayed over 10 concentrations with a maximum assay concentration of 0.1% DMSO. Automated fluorescence microscopy was carried out using a Molecular Devices ImageXpress Micro XL high-content imager, and images were collected with a 4× objective. 16-bit TIFF images were acquired and analyzed with MetaXpress 5.1.0.41 software.

[3] = tested on: SK-MEL-28; assay: OncoPanel cell proliferation assay, SK-MEL-28; format: cell-based, human; details: for Cell Count Activity Area: SK-MEL-28, scale 0-10
Description: as §1, §2, §3, §4, §5

[4] = tested on: Hs 729; assay: OncoPanel cell proliferation assay, Hs 729; format: cell-based, human; details: for Cell Count Activity Area: Hs 729, scale 0-10
Description: as §1, §2, §3, §4, §5

[5] = tested on: DMS114; assay: OncoPanel cell proliferation assay, DMS114; format: cell-based, human
Description: as §1, with “Cells” for “Cells were grown in RPMI 1640, 10% FBS, 2 mM L-alanyl-L-glutamine, 1 mM Na pyruvate, or a special medium. Cells”
as §2, §3, §4
GI50 is the concentration needed to reduce the observed growth by half (midway between the curve maximum and the time zero value). […] In rare instances, values <0 or >10 may be observed. […] Curve-fitting, calculations, and report generation was performed using a custom data reduction engine and MathIQ based software (AIM).

[6] = tested on: CEM-C1; assay: OncoPanel cell proliferation assay, CEM-C1; format: cell-based, human; details: for Cell Count Activity Area: CEM-C1, scale 0-10; for IC50: Homo sapiens, 72 h, CEM-C1, 3-day incubation, read-out: Cell Count IC50
Description: as §1, §2, §3, §4, §5

[7] = tested on: RL95-2; assay: OncoPanel cell proliferation assay, RL95-2; format: cell-based, human; details: for Cell Count Activity Area: RL95-2, scale 0-10
Description: as §1, §2, §3, §4, §5

[8] = tested on: 786-O; assay: OncoPanel cell proliferation assay, 786-O; format: cell-based, human; details: 786-O, scale 0-10
Description: as §1, §2, §3, §4, §5

[9] = tested on: AGS; assay: OncoPanel cell proliferation assay, AGS; format: cell-based, human; details: scale 0-10
Description: as §1, §2, §3, §4, §5

[10] = tested on: CaOV3; assay: OncoPanel cell proliferation assay, CaOV3; format: cell-based, human; details: for Cell Count Activity Area: CaOV3, scale 0-10
Description: as §1, §2, §3, §4, §5

[11] = tested on: SK-UT-1; assay: OncoPanel cell proliferation assay, SK-UT-1; details: for Cell Count Activity Area: SK-UT-1, scale 0-10
Description: as §6

[12] = tested on: U-87 MG; assay: OncoPanel cell proliferation assay, U-87 MG; format: cell-based, human; details: for Cell Count Activity Area: scale 0-10
Description: as §1, §2, §3, §4, §5

| SMILES | Cell Count Activity Area [1] | Cell Count Activity Area [2] | Cell Count Activity Area [3] | Cell Count Activity Area [4] | Cell Count Activity Area [6] | IC50 [6] [µM] | Cell Count Activity Area [7] | Cell Count Activity Area [8] | Cell Count Activity Area [9] | Cell Count Activity Area [10] | Cell Count Activity Area [11] | Cell Count Activity Area [12] | also measured |
| --- | --- | --- | --- | --- | --- | --- | --- | --- | --- | --- | --- | --- | --- |
| CO[C@H]1C[C@@H]2CC[C@@H](C)[C@@](O)(O2)C(=O)C(=O)N2CCCC[C@H]2C(=O)O[C@H]([C@H](C)C[C@@H]2CC[C@@H](O)[C@H](OC)C2)CC(=O)[C@H](C)/C=C(\C)[C@@H](O)[C@@H](OC)C(=O)[C@H](C)C[C@H](C)/C=C/C=C/C=C/1C [Rapamycin, reference compound] | 3.99 | 4.13 | 2.50 | 0.55 | 3.61 | > 1 | 4.24 | 4.17 | 5.67 | 2.40 | 3.23 | 3.79 | IC50 ([1]; Homo sapiens, 72 h, ST486, 3-day incubation, read-out: Cell Count IC50): > 1 µM; IC50 ([2]; Homo sapiens, CHP-212, 72 h, read-out: Cell Count IC50): > 1 µM; IC50 ([3]; Homo sapiens, 72 h, SK-MEL-28, 3-day incubation, read-out: Cell Count IC50): > 1 µM; EC50 ([4]; Homo sapiens, 72 h, Hs 729, 3-day incubation, read-out: Cell Count EC50): > 1 µM; GI50 ([4]; Homo sapiens, 72 h, Hs 729, 3-day incubation, read-out: Cell Count GI50): > 1 µM; IC50 ([4]; Homo sapiens, 72 h, Hs 729, 3-day incubation, read-out: Cell Count IC50): > 1 µM; Cell Count Activity Area ([5]; DMS114, scale 0-10): 4.14; IC50 ([5]; Homo sapiens, DMS-114, 72 h, DMS114, 3-day incubation, read-out: Cell Count IC50): > 1 µM; GI50 ([7]; Homo sapiens, 72 h, RL95-2, 3-day incubation, read-out: Cell Count GI50): 0.00013 µM; IC50 ([7]; Homo sapiens, 72 h, RL95-2, 3-day incubation, read-out: Cell Count IC50): > 1 µM; EC50 ([10]; Homo sapiens, Caov-3, 72 h, CaOV3, 3-day incubation, read-out: Cell Count EC50): > 1 µM; GI50 ([10]; Homo sapiens, Caov-3, 72 h, CaOV3, 3-day incubation, read-out: Cell Count GI50): > 1 µM; IC50 ([10]; Homo sapiens, Caov-3, 72 h, CaOV3, 3-day incubation, read-out: Cell Count IC50): > 1 µM; EC50 ([11]; Homo sapiens, SK-UT-1, 72 h, read-out: Cell Count EC50): 0.0002 µM; GI50 ([11]; Homo sapiens, SK-UT-1, 72 h, read-out: Cell Count GI50): > 1 µM; IC50 ([11]; Homo sapiens, SK-UT-1, 72 h, read-out: Cell Count IC50): > 1 µM; IC50 ([12]; Homo sapiens, 72 h, 3-day incubation, read-out: Cell Count IC50): > 1 µM |
| CN[C@@H]1C[C@H]2O[C@@](C)([C@@H]1OC)n1c3ccccc3c3c4c(c5c6ccccc6n2c5c31)C(=O)NC4 [Staurosporine, reference compound] | 4.89 | 4.80 | 2.81 | 4.06 | 4.28 | 0.0092 | 3.87 | 4.87 | 6.19 | 5.31 | 3.46 | 3.25 | EC50 ([5]; Homo sapiens, DMS-114, 72 h, DMS114, 3-day incubation, read-out: Cell Count EC50): 0.021 µM |

Source: patent publication US20210024542A1 (Torcept Therapeutics, Inc., priority 2018, published 2021)
